Measured values from paper PMC5889558, “The inhibition of human lung fibroblast proliferation and differentiation by Gs-coupled receptors is not predicted by the magnitude of cAMP response” (Respiratory Research, 2018).

Columns and labels:
[1] = test system: human lung fibroblasts (HLF); assay: cAMP accumulation in HLF (HitHunter or AlphaScreen); format: cell-based; conditions: HLF, 2 h, mean ± SEM, NC = not calculated due to incomplete curve; for EC50 / Emax: Homo sapiens, Fibroblast; for EC50: read-out: cAMP pEC50 (converted); for Emax: read-out: cAMP Emax (% max)
Procedure: HLF were grown to confluency in 96-well white ViewPlates, before incubation with a range of agonist concentrations, or vehicle, for 2 h at room temperature in HBSS with 5 mM HEPES, 0.1% w/v HSA, and 5 μM rolipram. […] Rolipram was excluded when measuring cAMP levels in response to PDE inhibitors. cAMP levels were measured using either HitHunter cAMP assay or AlphaScreen competition assay following manufacturer protocol, and were assessed on either a BMG LABTEK ClarioStar or a Packard EnVision plate reader. cAMP concentrations in each well were determined using a standard curve. To account for the inter-assay variation in levels of cAMP produced in each experiment, data were normalized to the maximal forskolin response.

[2] = test system: human lung fibroblasts (HLF); assay: HLF proliferation by BrdU incorporation (DELFIA), driven by FBS or PDGF; format: cell-based; conditions: 24 h; for Emax / EC50: Homo sapiens, Fibroblast
Procedure: (§1) Proliferation of HLF was measured by incorporation of bromodeoxyuridine (BrdU). HLF were seeded overnight at 4000 cells/well in 96-well black ViewPlates, before being starved for 24 h in culture medium devoid of FBS. Proliferation was measured after incubation with a range of concentrations of FBS or PDGF, in DMEM supplemented with 0.1% w/v HSA, for 24 h.
For anti-remodelling assays using BrdU incorporation, cells were incubated for 24 h with a range of concentrations of test compounds in the presence of near maximal concentrations of FBS or PDGF in DMEM supplemented with 0.1% w/v HSA. Proliferation was assessed using the DELFIA BrdU incorporation assay kit following manufacturer protocol. Fluorescence was measured using a Packard EnVision plate reader. To account for the inter-assay variation in levels of proliferation in each experiment, data were normalized to the PDGF or FBS response.

[3] = test system: human lung fibroblasts (HLF); assay: Cell viability assay, caspase-3/7 as marker of apoptosis; format: cell-based; conditions: 24 h
Procedure: Cell viability was measured using caspase-3/7 expression as a marker of apoptosis after treatment for 24 h with test compounds. HLF were seeded overnight at 6,000 cells/well in 96-well black ViewPlates, before being starved for 24 hours in culture medium devoid of FBS. Cells were incubated for 24 hours in the presence of test compounds at the top concentrations used in the proliferation assays, or in the presence of 100 nM staurosporine to induce apoptosis.
The presence of the apoptotic marker caspase-3/7 was detected by incubating cells with 8 μM CellEvent™ Caspase-3/7 Red Detection Reagent in dPBS with 5 % FBS, for 30 minutes at 37°C. […] Images were analyzed using a multi wavelength cell scoring algorithm within the MetaXpress 5.3 software, which measures cell number using stained nuclei, and percent of these cells positive for caspase-3/7 from Cy5 readouts. To account for the inter-assay variation in levels of caspase 3/7 detected in each experiment, data were normalized to the staurosporine response.
Statistical significance across treatment groups was determined by using the one-way ANOVA with Dunnett’s multiple-comparison post hoc test.

[4] = Agonist concentration remaining after incubation with HLF; format: in vitro ADME, human; conditions: after 24 h incubation with HLF; unpublished data
[5] = test system: human lung fibroblasts (HLF); assay: Fibroblast to myofibroblast transdifferentiation (FMT), αSMA immunofluorescence, TGFβ-driven; format: cell-based; conditions: 48 h, TGFβ 0.3 ng/mL
Procedure: To assess the differentiation of fibroblasts to the myofibroblast phenotype, immunofluorescence was used to monitor increases in α smooth muscle actin (αSMA). HLF were seeded overnight at 1000 cells/well in 384-well black clear bottom plates, before being starved for 24 h growth medium devoid of FBS.
For anti-remodelling assays using FMT, cells were incubated for 48 h with a range of concentrations of test compounds and incubated for 48 h, at 37°C, 5% CO2 in the presence of a near maximal concentration of TGFβ (0.3 ng/mL), to promote differentiation in DMEM supplemented with 0.1% w/v HSA. Following stimulation, cells were fixed in 4% paraformaldehyde, washed 3× in PBS (with Ca^2+/Mg^2+), and incubated with permeabilising blocking buffer (dPBS (with Ca^2+/Mg^2+), 10% FBS (v/v), 0.1% Triton X-100 (v/v)) for 1 h at 37°C. Wells were then washed 3× in wash buffer (Tris Buffered Saline (TBS), 0.05% (v/v) Tween-20) and incubated with mouse anti-α SMA (1:1000 dilution in permeabilising blocking buffer) for 1 h at room temperature, with gentle shaking. Following 3× wash in wash buffer, wells were incubated with blocking buffer containing Hoechst to stain for nuclear DNA (2 μM), and FITC-conjugated Affini-pure goat […] IgG (1:1000 dilution in blocking buffer) for 30 min at 37°C. Fluorescence was then quantified on a widefield ImageXpress Micro microscope, with a Plan Fluor 20X objective, DAPI filter cube (excitation 400–418 nm, emission 435–470 nm), 50 ms exposure time for nuclei, and FITC filter cube (excitation 467–498 nm, emission 513–556 nm), 200 ms exposure time for αSMA.
To quantify increases in αSMA fluorescence, a standard Multi-Wavelength Cell Scoring algorithm was used in MetaXpress 5.3 software (Molecular Devices, California, USA). To account for the inter-assay variation in levels of αSMA expression produced in each experiment, data were normalized to the response to TGFβ.

[6] = test system: human lung fibroblasts (HLF); assay: HLF proliferation by nuclei count; format: cell-based
Procedure: as §1, with “nuclei count. Human lung fibroblasts (HLF)” for “incorporation of bromodeoxyuridine (BrdU). HLF”, “4,000” for “4000”, “0.1 %” for “0.1%”, “24, 48, 72, or 96 h for nuclei count assay.” for “24 h.”
For anti-remodelling assays, cells were incubated for 48 h with a range of concentrations of test compounds in the presence of an EC80 concentration of FBS (1.8 % v/v). Following stimulation, cells were fixed with 4 % PFA and nuclei stained with Hoechst 33342 (1 μM) for 15 minutes at room temperature. Cells were then washed three times with dPBS before the plate was read using the widefield ImageXpress Micro microscope, with a Plan Fluor 4X objective, DAPI filter cube (excitation 400-418nm, emission 435-470nm), and 50 ms exposure time. Images were analysed using a nuclear count algorithm within the MetaXpress 5.3 software (Molecular Devices, California, USA). To account for the inter-assay variation in levels of proliferation in each experiment, data were normalized to the EC80 FBS response.

[7] = room temperature, 5 μM rolipram (excluded for PDE inhibitors), at least 3 experiments
[8] = percentage of the maximal forskolin response
[9] = inhibition of BrdU incorporation, EC80 PDGF, percentage of maximal proliferation observed with PDGF, NC = not calculated due to incomplete curve, read-out: Proliferation vs PDGF Emax (% max)
[10] = inhibition of BrdU incorporation, EC80 concentration of PDGF, mean ± SEM, NC = not calculated due to incomplete curve, read-out: Proliferation vs PDGF pEC50 (converted)
[11] = inhibition of BrdU incorporation, EC80 concentration of serum, mean ± SEM, NC = not calculated due to incomplete curve, read-out: Proliferation vs serum pEC50 (converted)
[12] = inhibition of BrdU incorporation, EC80 serum, percentage of maximal proliferation observed with serum, NC = not calculated due to incomplete curve, read-out: Proliferation vs serum Emax (% max)

CCCCC[C@H](O)CC[C@@H]1[C@H]2Cc3cccc(OCC(=O)O)c3C[C@H]2C[C@H]1O [Treprostinil]
EC50 [1, 7]: 151 nM | Emax [1, 8]: 101 ± 0.58% | Emax [2, 9]: 63.7 ± 6.39% | EC50 [2, 10]: 29.5 nM | EC50 [2, 11]: 102 nM | Emax [2, 12]: 42.5 ± 5.36% | % cells positive for caspase-3/7, 1:10 dilution ([3]; human, 1 μM): 0.92 ± 0.25% | % cells positive for caspase-3/7, Top conc ([3]; human, 10 μM): 0.76 ± 0.06% | original concentration of agonist remaining [4]: > 90%

AGN-205204
cAMP pEC50 [1, 7]: 6.62 ± 0.12 | cAMP Emax (% max) [1, 8]: 49.7 ± 3.84 % max | Proliferation vs PDGF Emax (% max) ([2]; inhibition of BrdU incorporation, EC80 PDGF, percentage of maximal proliferation observed with PDGF, NC = not calculated due to incomplete curve): 101 ± 3.71 % max | Proliferation vs PDGF pEC50 ([2]; inhibition of BrdU incorporation, EC80 concentration of PDGF, mean ± SEM, NC = not calculated due to incomplete curve): 7.45 ± 0.25 | Proliferation vs serum pEC50 ([2]; inhibition of BrdU incorporation, EC80 concentration of serum, mean ± SEM, NC = not calculated due to incomplete curve): 6.91 ± 0.48 | Proliferation vs serum Emax (% max) ([2]; inhibition of BrdU incorporation, EC80 serum, percentage of maximal proliferation observed with serum, NC = not calculated due to incomplete curve): 51.3 ± 8.89 % max | maximal level of inhibition of FMT [5]: 71 % of the TGFβ response | % cells positive for caspase-3/7, 1:10 dilution ([3]; HLF, 1:10 dilution of top conc 10 μM): 0.56 ± 0.09% | % cells positive for caspase-3/7, Top conc ([3]; HLF, top conc 10 μM, mean ± SEM, n=3): 0.57 ± 0.09%

OCc1cc(C(O)CNCCCCCCOCCCCc2ccccc2)ccc1O (stereo not shown) [Salmeterol]
EC50 [1, 7]: 0.123 nM | Emax [1, 8]: 45.8 ± 3.53% | Emax [2, 9]: 89.2 ± 0.27% | EC50 [2, 10]: 0.0316 nM | EC50 [2, 11]: 0.263 nM | Emax [2, 12]: 37.7 ± 7.33% | maximal level of inhibition of FMT [5]: 51 % of the TGFβ response | % cells positive for caspase-3/7, 1:10 dilution ([3]; human, 10 nM): 0.66 ± 0.24% | % cells positive for caspase-3/7, Top conc ([3]; human, 100 nM): 0.40 ± 0.12%

Platelet-derived growth factor [PDGF]
maximal proliferation (BrdU incorporation) ([2]; normalized to maximal proliferation observed with 10% serum): 41.0 ± 8.62% | EC50 for stimulation of proliferation (nuclei count) ([6]; 72 h treatment): 3.77 ± 0.13 ng/mL | EC50 for stimulation of proliferation (nuclei count) ([6]; 96 h treatment): 7.26 ± 3.23 ng/mL | maximal proliferation (nuclei count) ([6]; 96 h treatment): 29.2 ± 15.2 % of the maximal serum response
